According to patent publication US20260035753A1, “METHODS OF DETERMINING BACTERIA AND MANUFACTURING A FIBROUS WEB AND TOOLS AND USES RELATED THERETO” (KEMIRA OYJ, priority 2020, published 2026):

Key:
Thermicanus [1] = assay: Microbe control test in recycled fiber pulp (white water + recycled packaging board), 24 h contact time; format: cell-based; conditions: after 24 h at +50° C.; NGS sequencing and total bacterial qPCR; control 3.2*10^7; performic acid 14 mg/l, monochloramine 15 mg/l, mixture in total 15 mg/l, mixture in total 8 mg/l + zinc 7 mg/l
Description: White water from a liner machine using recycled fiber was taken and dry, brown, recycled packaging board was homogenized with the water so that the final consistency of fibers was 2.0%. The pulp was divided into portions and biocides and enzyme inhibitor (zinc) were added into the bottles according to the Table 2. pH of the pulp at the beginning of the test was 7.75 and ORP +175 mV. After this the bottles were incubated at +50° C. for 24 hours. At 24 h pH and ORP were measured and samples for DNA analysis were collected. The amount of Thermicanus was quantified as described in examples 1 and 2.
Biocide and enzyme inhibitor treated samples had clearly higher pH and ORP than control sample. Said biocide and/or enzyme inhibitor treatments also decrease the amount of bacteria belonging to the family Thermicanaceae or genus Thermicanus: The control sample contained 3.2*10^7 Thermicanus cells/ml, and the treated samples>90% less, 1.2-2.2*10^6 cells/ml. Thus, in the treated samples both the physical conditions were better and the amount of Thermicanus was lower than in the control sample.

Thermicanus [2] = assay: Biocide trial on a paper machine using recycled fiber; Thermicanus quantified with specific qPCR
Description: The best primer sequences for a qPCR assay specific for Thermicanus were 5′-[…]-3′ (SEQ ID NO: 2) and 5′-[…]-3′ (SEQ ID NO: 3). Allowing maximum 2 mismatches, these primers detect no 16S rRNA gene of other bacterial genera. The length of the PCR product is 236 bp for Thermicanus aegyptius, the only Thermicanus species described thus far. Specific amplification (one peak in qPCR melt curve analysis) was produced from Thermicanus genomic DNA at annealing temperatures 59-63° C. in qPCR master mix with 2.2 mM Mg^2+ (50 mM salt) and SYBR Green.
Besides in silico verifications, the validity of the Thermicanus qPCR assay with the novel primers was verified with 16 board process DNA samples from RCF pulp and white water (FIG. 1). Samples were selected based on sequencing results to be taxonomically diverse, include wide range of Thermicanus, and include communities with close relatives of Thermicanus including Geobacillus (Bacillaceae). SYBR Green qPCR detection chemistry was used with hot-start qPCR mastermix on BioRad CFX96 cycler or thermal cycler, using annealing temperature of 61° C. for stringent hybridization. The Pearson correlation between the NGS and qPCR-derived Thermicanus abundance was 0.993, when total bacteria were quantified based on genomic DNA concentration (FIG. 1A), and 0.997, when total bacteria were quantified based on general bacterial qPCR (FIG. 1B). These very high correlations verify the specificity and validity of the novel Thermicanus qPCR primers for the quantification of Thermicanus in board process samples.
A biocide trial on a paper machine using recycled fiber was ran with monochloramine (MCA). Samples from stock storage and cloudy white water were taken 7 months and 1 day before starting the trial and 3 weeks after starting the MCA trial. The amount of Thermicanus was quantified with Thermicanaceae-specific qPCR as described in Example 3. MCA trial decreased Thermicanus densities in stock storage and white water by ≥99%.

Structure (SMILES) | Thermicanus, cells/ml (Thermicanus [1]) | Thermicanus, white water, cells/ml (Thermicanus [2]; cloudy white water, 3 weeks after start of MCA trial, before trial 2.7*10^8 (7 months) and 2.1*10^8 (1 day)) | decrease of Thermicanus densities (Thermicanus [2]; stock storage and white water, 3 weeks after start of MCA trial versus before trial) [%] | Thermicanus, stock storage, cells/ml (Thermicanus [2]; stock storage, 3 weeks after start of MCA trial, before trial 5.8*10^8 (7 months) and 3.9*10^8 (1 day))
NCl [Monochloramine, monochloramine] | 1.2*10^6 cells/ml | 7.5*10^5 cells/ml | ≥ 99 | 3.8*10^6 cells/ml
O=COO [Performic acid] | 2.0*10^6 cells/ml |  |  | 
